Data published in patent US8192962B2, “Processes for detecting toxic substances” (Daikin Industries, Ltd., priority 2001, dated 2012).

Test system: Detoxification protein genes
Assay: DNA chip mRNA expression in yeast, detoxification protein genes (Table 8)
Assay type: cell-based, Saccharomyces cerevisiae S288C
Outline: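 S. cerevisiae S288C grown at 25° C. in YPD to log phase, then exposed 2 h to a toxicant at a growth-inhibiting, non-lethal concentration; untreated cells as control. Poly(A) mRNA reverse-transcribed with Cy3-dUTP or Cy5-dUTP, hybridized >12 h at 65° C. to whole-genome yeast DNA chip; value = fluorescence ratio treated/untreated.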

In the case of `[Cl][Hg][Cl]` [(3), HgCl2], the “The level of expressed mRNA in the presence of chemical substance/The level of expressed mRNA in the absence of chemical substance” value (yeast gene YBL064C) is reported as 3.9, the “The level of expressed mRNA in the presence of chemical substance/The level of expressed mRNA in the absence of chemical substance” value (yeast gene YBR008C) is reported as 4.9 and the “The level of expressed mRNA in the presence of chemical substance/The level of expressed mRNA in the absence of chemical substance” value (yeast gene YBR145W) is reported as 2.8. For the same compound, the “The level of expressed mRNA in the presence of chemical substance/The level of expressed mRNA in the absence of chemical substance” value (yeast gene YBR244W) was 2.0, the “The level of expressed mRNA in the presence of chemical substance/The level of expressed mRNA in the absence of chemical substance” value (yeast gene YBR293W) was 1.0 and the “The level of expressed mRNA in the presence of chemical substance/The level of expressed mRNA in the absence of chemical substance” value (yeast gene YCL035C) was 1.5. The “The level of expressed mRNA in the presence of chemical substance/The level of expressed mRNA in the absence of chemical substance” value (yeast gene YCL069W) was 0.9, the “The level of expressed mRNA in the presence of chemical substance/The level of expressed mRNA in the absence of chemical substance” value (yeast gene YCR083W) was 1.5 and the “The level of expressed mRNA in the presence of chemical substance/The level of expressed mRNA in the absence of chemical substance” value (yeast gene YDL100C) was 1.1. For the same compound, the “The level of expressed mRNA in the presence of chemical substance/The level of expressed mRNA in the absence of chemical substance” value (yeast gene YDL168W) was 2.1, the “The level of expressed mRNA in the presence of chemical substance/The level of expressed mRNA in the absence of chemical substance” value (yeast gene YDR256C) was 0.7 and the “The level of expressed mRNA in the presence of chemical substance/The level of expressed mRNA in the absence of chemical substance” value (yeast gene YDR453C) was 4.4. The “The level of expressed mRNA in the presence of chemical substance/The level of expressed mRNA in the absence of chemical substance” value (yeast gene YDR513W) was 2.3, the “The level of expressed mRNA in the presence of chemical substance/The level of expressed mRNA in the absence of chemical substance” value (yeast gene YDR538W) was 2.4 and the “The level of expressed mRNA in the presence of chemical substance/The level of expressed mRNA in the absence of chemical substance” value (yeast gene YEL027W) was 3.4. The “The level of expressed mRNA in the presence of chemical substance/The level of expressed mRNA in the absence of chemical substance” value (yeast gene YEL065W) was 1.2, the “The level of expressed mRNA in the presence of chemical substance/The level of expressed mRNA in the absence of chemical substance” value (yeast gene YER185W) was 2.1 and the “The level of expressed mRNA in the presence of chemical substance/The level of expressed mRNA in the absence of chemical substance” value (yeast gene YFL050C) was 1.1. For the same compound, the “The level of expressed mRNA in the presence of chemical substance/The level of expressed mRNA in the absence of chemical substance” value (yeast gene YGL013C) was 0.8, the “The level of expressed mRNA in the presence of chemical substance/The level of expressed mRNA in the absence of chemical substance” value (yeast gene YGL254W) was 0.8 and the “The level of expressed mRNA in the presence of chemical substance/The level of expressed mRNA in the absence of chemical substance” value (yeast gene YGR088W) was 7.7. For the same compound, the “The level of expressed mRNA in the presence of chemical substance/The level of expressed mRNA in the absence of chemical substance” value (yeast gene YGR138C) was 1.0, the “The level of expressed mRNA in the presence of chemical substance/The level of expressed mRNA in the absence of chemical substance” value (yeast gene YGR197C) was 2.5 and the “The level of expressed mRNA in the presence of chemical substance/The level of expressed mRNA in the absence of chemical substance” value (yeast gene YGR209C) was 3.5. For the same compound, the “The level of expressed mRNA in the presence of chemical substance/The level of expressed mRNA in the absence of chemical substance” value (yeast gene YGR224W) was 1.2, the “The level of expressed mRNA in the presence of chemical substance/The level of expressed mRNA in the absence of chemical substance” value (yeast gene YHL040C) was 1.5 and the “The level of expressed mRNA in the presence of chemical substance/The level of expressed mRNA in the absence of chemical substance” value (yeast gene YHL047C) was 1.0. The “The level of expressed mRNA in the presence of chemical substance/The level of expressed mRNA in the absence of chemical substance” value (yeast gene YHR008C) was 4.8, the “The level of expressed mRNA in the presence of chemical substance/The level of expressed mRNA in the absence of chemical substance” value (yeast gene YHR048W) was 1.4 and the “The level of expressed mRNA in the presence of chemical substance/The level of expressed mRNA in the absence of chemical substance” value (yeast gene YHR053C) was 0.7. For the same compound, the “The level of expressed mRNA in the presence of chemical substance/The level of expressed mRNA in the absence of chemical substance” value (yeast gene YHR055C) was 0.8, the “The level of expressed mRNA in the presence of chemical substance/The level of expressed mRNA in the absence of chemical substance” value (yeast gene YIR002C) was 0.5 and the “The level of expressed mRNA in the presence of chemical substance/The level of expressed mRNA in the absence of chemical substance” value (yeast gene YIR038C) was 4.6. For the same compound, the “The level of expressed mRNA in the presence of chemical substance/The level of expressed mRNA in the absence of chemical substance” value (yeast gene YJL101C) was 2.1, the “The level of expressed mRNA in the presence of chemical substance/The level of expressed mRNA in the absence of chemical substance” value (yeast gene YJR104C) was 2.9 and the “The level of expressed mRNA in the presence of chemical substance/The level of expressed mRNA in the absence of chemical substance” value (yeast gene YKL026C) was 1.2. The “The level of expressed mRNA in the presence of chemical substance/The level of expressed mRNA in the absence of chemical substance” value (yeast gene YKL064W) was 0.4, the “The level of expressed mRNA in the presence of chemical substance/The level of expressed mRNA in the absence of chemical substance” value (yeast gene YKR066C) was 5.5 and the “The level of expressed mRNA in the presence of chemical substance/The level of expressed mRNA in the absence of chemical substance” value (yeast gene YKR105C) was 0.9. The “The level of expressed mRNA in the presence of chemical substance/The level of expressed mRNA in the absence of chemical substance” value (yeast gene YKR106W) was 2.1, the “The level of expressed mRNA in the presence of chemical substance/The level of expressed mRNA in the absence of chemical substance” value (yeast gene YLL028W) was 4.6 and the “The level of expressed mRNA in the presence of chemical substance/The level of expressed mRNA in the absence of chemical substance” value (yeast gene YLL057C) was 1.8. For the same compound, the “The level of expressed mRNA in the presence of chemical substance/The level of expressed mRNA in the absence of chemical substance” value (yeast gene YLL060C) was 2.3, the “The level of expressed mRNA in the presence of chemical substance/The level of expressed mRNA in the absence of chemical substance” value (yeast gene YLR043C) was 2.0 and the “The level of expressed mRNA in the presence of chemical substance/The level of expressed mRNA in the absence of chemical substance” value (yeast gene YLR046C) was 0.9. For the same compound, the “The level of expressed mRNA in the presence of chemical substance/The level of expressed mRNA in the absence of chemical substance” value (yeast gene YML028W) was 4.4, the “The level of expressed mRNA in the presence of chemical substance/The level of expressed mRNA in the absence of chemical substance” value (yeast gene YML116W) was 1.5 and the “The level of expressed mRNA in the presence of chemical substance/The level of expressed mRNA in the absence of chemical substance” value (yeast gene YMR015C) was 1.9. The “The level of expressed mRNA in the presence of chemical substance/The level of expressed mRNA in the absence of chemical substance” value (yeast gene YMR038C) was 1.8, the “The level of expressed mRNA in the presence of chemical substance/The level of expressed mRNA in the absence of chemical substance” value (yeast gene YNL239W) was 2.4 and the “The level of expressed mRNA in the presence of chemical substance/The level of expressed mRNA in the absence of chemical substance” value (yeast gene YNL241C) was 4.3. The “The level of expressed mRNA in the presence of chemical substance/The level of expressed mRNA in the absence of chemical substance” value (yeast gene YNL259C) was 1.1, the “The level of expressed mRNA in the presence of chemical substance/The level of expressed mRNA in the absence of chemical substance” value (yeast gene YOL158C) was 2.4 and the “The level of expressed mRNA in the presence of chemical substance/The level of expressed mRNA in the absence of chemical substance” value (yeast gene YOR031W) was 1.3. The “The level of expressed mRNA in the presence of chemical substance/The level of expressed mRNA in the absence of chemical substance” value (yeast gene YOR153W) was 5.1, the “The level of expressed mRNA in the presence of chemical substance/The level of expressed mRNA in the absence of chemical substance” value (yeast gene YOR247W) was 3.6 and the “The level of expressed mRNA in the presence of chemical substance/The level of expressed mRNA in the absence of chemical substance” value (yeast gene YOR251C) was 1.3. The “The level of expressed mRNA in the presence of chemical substance/The level of expressed mRNA in the absence of chemical substance” value (yeast gene YOR273C) was 1.7, the “The level of expressed mRNA in the presence of chemical substance/The level of expressed mRNA in the absence of chemical substance” value (yeast gene YPL163C) was 1.4 and the “The level of expressed mRNA in the presence of chemical substance/The level of expressed mRNA in the absence of chemical substance” value (yeast gene YPR200C) was 0.8.
